Converted amounts (≈) assume the structure as drawn. Where two headings read alike, the source gives them in different places.

Test [1] concerns the target T1, PBP3 from Acinetobacter baumannii (ATCC 19606) (Acinetobacter baumannii, UniProt A0ABX6CK25).
T1 sequence (A0ABX6CK25 64-610): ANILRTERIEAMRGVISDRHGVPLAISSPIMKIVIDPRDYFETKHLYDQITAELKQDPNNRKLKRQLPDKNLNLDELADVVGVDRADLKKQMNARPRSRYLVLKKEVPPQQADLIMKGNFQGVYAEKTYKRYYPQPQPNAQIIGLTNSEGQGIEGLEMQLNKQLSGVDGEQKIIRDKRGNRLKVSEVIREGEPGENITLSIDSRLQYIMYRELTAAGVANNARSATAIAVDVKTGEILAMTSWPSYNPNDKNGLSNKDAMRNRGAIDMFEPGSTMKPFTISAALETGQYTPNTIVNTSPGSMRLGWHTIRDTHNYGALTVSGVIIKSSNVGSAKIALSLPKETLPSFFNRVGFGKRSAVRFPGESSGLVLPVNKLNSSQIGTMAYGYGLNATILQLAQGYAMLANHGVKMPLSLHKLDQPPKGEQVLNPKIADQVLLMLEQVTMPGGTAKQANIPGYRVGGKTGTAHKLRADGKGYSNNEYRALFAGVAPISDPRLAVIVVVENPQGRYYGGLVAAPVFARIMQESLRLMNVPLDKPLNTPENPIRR
As to the kind of experiment: Bocillin-FL fluorescence polarization competition binding, A. baumannii PBP3. The following applies: fluorescence polarization competition binding assay using Bocillin-FL; read-out: A. baumannii PBP3 Potency. In a few lines: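 Purified PBPs pre-incubated with inhibitor (E. coli PBP3 1.5 μM, 30 min; P. aeruginosa PBP3 0.75 μM, A. baumannii PBP1a 1 μM and PBP3 0.2 μM, 15 min), then Bocillin-FL 0.1 μM (0.05 μM for PBP1a) added; FP read up to 60 min. EC50 = concentration halving bound Bocillin-FL.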
In general terms: Fluorescence polarisation rises when a labelled molecule tumbles more slowly, as on binding a larger partner.

Test [2] relates to A. baumannii ATCC 17978. The test can be described thus: microbe, parasite or virus in culture. The following applies: Acinetobacter baumannii. The test is classed as cell-based.
Test [3] has as its system P. aeruginosa ATCC 35151. As to the kind of experiment: microbe, parasite or virus in culture. Type of test: cell-based. The following applies: Pseudomonas aeruginosa, ATCC35151, read-out: Minimum inhibitory concentration, P. aeruginosa ATCC 35151.
Test [4] deals with P. aeruginosa (ΔmexAB-oprM). The test can be described thus: Broth microdilution MIC in iron-depleted CAMHB (IDM). The test is classed as cell-based. The following applies: Pseudomonas aeruginosa; iron-depleted CAMHB (IDM); […]; read-out: Minimum inhibitory concentration, P. aeruginosa ΔmexAB-oprM. Background: Broth dilution looks for growth in wells or tubes with falling amounts of substance.

For test [5], the system named is P. aeruginosa CDC-0054. The test can be described thus: microbe, parasite or virus in culture. Type of test: cell-based. The settings on record: Pseudomonas aeruginosa, CDC0054, read-out: Minimum inhibitory concentration, P. aeruginosa CDC-0054.
Test [6] has as its system A. baumannii 1258916. As to the kind of experiment: microbe, parasite or virus in culture. The test is classed as cell-based, Acinetobacter baumannii.
Test [7] relates to A. baumannii CDC-0033. The test can be described thus: microbe, parasite or virus in culture. The test is classed as cell-based. The settings on record: Acinetobacter baumannii.
The subject of test [8] is A. baumannii CDC-0045. The test can be described thus: microbe, parasite or virus in culture. The settings on record: Acinetobacter baumannii. The test is classed as cell-based.
The test system of test [9] is B. thailandensis ATCC 700388. The test can be described thus: microbe, parasite or virus in culture. Type of test: cell-based. The settings on record: Burkholderia thailandensis, ATCC700388, read-out: Minimum inhibitory concentration (MIC), B. thailandensis ATCC 700388.
For test [10], the system named is B. humptydooensis ATCC BAA-2767. As to the kind of experiment: microbe, parasite or virus in culture. The test is classed as cell-based. The following applies: Burkholderia humptydooensis, ATCCBAA2767, read-out: Minimum inhibitory concentration (MIC), B. humptydooensis ATCC BAA-2767.
[11] abbreviates: ATCC17978, read-out: Minimum inhibitory concentration (MIC), A. baumannii ATCC 17978.
[12] abbreviates: Acinetobacter baumannii, 1258916, read-out: Minimum inhibitory concentration (MIC), A. baumannii 1258916.
The mark [13] stands for this setting: CDC0033, read-out: Minimum inhibitory concentration (MIC), A. baumannii CDC-0033.
Setting [14] is: CDC0045, read-out: Minimum inhibitory concentration (MIC), A. baumannii CDC-0045.
Setting [15] is: ATCC17978, read-out: MIC, A. baumannii ATCC 17978.
The mark [16] stands for this setting: Acinetobacter baumannii, 1258916, read-out: MIC, A. baumannii 1258916.
The mark [17] stands for this setting: CDC0033, read-out: MIC, A. baumannii CDC-0033.
Setting [18] is: CDC0045, read-out: MIC, A. baumannii CDC-0045.

Regarding `O=C(O)c1c(F)ccc2c1OB(O)[C@@H](NC(=O)[C@H](NC(=O)N1CCN(C3CCN(C(=O)Nc4cc(F)c(F)c(O)c4F)CC3)C(=O)C1=O)c1cc(F)c(O)c(O)c1Cl)C2` [Example 491, (R)-3-((R)-2-(2-chloro-5-fluoro-3,4-dihydroxyphenyl)-2-(2,3-dioxo-4-(1-((2,4,5-trifluoro-3-hydroxyphenyl)carbamoyl)piperidin-4-yl)piperazine-1-carboxamido)acetamido)-7-fluoro-2-hydroxy-3,4-dihydro-2H-benzo[e][1,2]oxaborinine-8-carboxylic acid], the IC50 in test [1] was less than 10 µM. Also, the MIC in test [2] (setting [11]) was less than 1 µg/mL; in test [3], less than 1 µg/mL; in test [4], less than 1 µg/mL; in [5], less than 1 µg/mL; in [6] (setting [12]) it was less than 1 µg/mL; in test [7] (setting [13]) it was 2 to 4 µg/mL (≈ 2.34 to 4.68 µM). Also, the MIC in test [8] (setting [14]) was less than 1 µg/mL; in test [9], 2 to 4 µg/mL (≈ 2.34 to 4.68 µM); in [10], 8 to 16 µg/mL (≈ 9.36 to 18.7 µM).
`O=C(O)c1c(F)ccc2c1OB(O)[C@@H](NC(=O)[C@H](NC(=O)N1CCN(C3CCN(C(=O)c4cccc(O)c4Cl)CC3)C1=O)c1cc(F)c(O)c(O)c1Cl)C2` (single isomer, unassigned) [Example 432]: the IC50 in test [1] was less than 10 µM. The MIC in test [2] (setting [15]) was less than 1 µg/mL; in [3], less than 1 µg/mL; in test [4], less than 1 µg/mL; in test [5] it was less than 1 µg/mL; in test [6] (setting [16]), less than 1 µg/mL; in test [7] (setting [17]), 2 to 4 µg/mL (≈ 2.52 to 5.05 µM). The MIC in test [8] (setting [18]), in test [9] and in [10] was less than 1 µg/mL throughout.
Consider `O=C(O)c1c(F)ccc2c1OB(O)[C@@H](NC(=O)[C@H](NC(=O)N1CCN(C3CCN(C(=O)c4ccc(F)c(O)c4)CC3)C1=O)c1cc(F)c(O)c(O)c1Cl)C2` (single isomer, unassigned) [Example 435], for which the IC50 in [1] lay in the range of 10 to 50 µM. Besides, the MIC in [2] (setting [15]), in [3], in [4], in test [5], in test [6] (setting [16]) and in [7] (setting [17]) was less than 1 µg/mL throughout. In addition, the MIC in [8] (setting [18]), in test [9] and in [10] was less than 1 µg/mL in each case.
For `O=C(O)c1c(F)ccc2c1OB(O)[C@@H](NC(=O)[C@H](NC(=O)N1CCN(C3CCN(C(=O)c4ccc(F)c(O)c4F)CC3)C1=O)c1cc(F)c(O)c(O)c1Cl)C2` (single isomer, unassigned) [Example 437], the IC50 in [1] is less than 10 µM. The MIC in test [2] (setting [15]), in test [3], in test [4], in [5], in test [6] (setting [16]) and in [7] (setting [17]) was less than 1 µg/mL each time. The MIC in test [8] (setting [18]), in test [9] and in [10] was less than 1 µg/mL throughout.
As to `O=C(O)c1c(F)ccc2c1OB(O)[C@@H](NC(=O)[C@H](NC(=O)N1CCN(C3CCN(C(=O)c4cccc(O)c4)CC3)C1=O)c1cc(F)c(O)c(O)c1Cl)C2` (single isomer, unassigned) [Example 430], the IC50 in test [1] is less than 10 µM. For the same compound, the MIC in test [2] (setting [15]) was less than 1 µg/mL; in [3] it was less than 1 µg/mL; in test [4], less than 1 µg/mL; in test [5], less than 1 µg/mL; in [6] (setting [16]), 8 to 16 µg/mL (≈ 10.6 to 21.1 µM); in [7] (setting [17]) it was 8 to 16 µg/mL (≈ 10.6 to 21.1 µM). The MIC in [8] (setting [18]) is 8 to 16 µg/mL (≈ 10.6 to 21.1 µM); in test [9], less than 1 µg/mL; in [10], less than 1 µg/mL.
`O=C(O)c1c(F)ccc2c1OB(O)[C@@H](NC(=O)[C@H](NC(=O)N1CCN(C3CCN(C(=O)c4cccc(O)c4F)CC3)C1=O)c1cc(F)c(O)c(O)c1Cl)C2` (single isomer, unassigned) [Example 431]: the IC50 in test [1] is less than 10 µM. For the same compound, the MIC in [2] (setting [15]), in [3], in test [4], in test [5], in [6] (setting [16]) and in [7] (setting [17]) was less than 1 µg/mL throughout. The MIC in test [8] (setting [18]), in test [9] and in test [10] was less than 1 µg/mL each time.
In the case of `O=C(O)c1c(F)ccc2c1OB(O)[C@@H](NC(=O)[C@H](NC(=O)N1CCN(C3CCN(C(=O)Nc4c(F)ccc(O)c4F)CC3)C1=O)c1cc(F)c(O)c(O)c1Cl)C2` (single isomer, unassigned) [Example 454], the IC50 in test [1] is less than 10 µM. The MIC was less than 1 µg/mL in test [2] (setting [15]); less than 1 µg/mL in [3]; less than 1 µg/mL in test [4]; less than 1 µg/mL in test [5]; less than 1 µg/mL in test [6] (setting [16]); 2 to 4 µg/mL (≈ 2.47 to 4.95 µM) in test [7] (setting [17]). The MIC in test [8] (setting [18]), in test [9] and in [10] was less than 1 µg/mL in each case.
Take `O=C(O)c1c(F)ccc2c1OB(O)[C@@H](NC(=O)C(NC(=O)N1CCN(C3CCN(C(=O)Nc4ccc(Cl)c(O)c4F)CC3)C(=O)C1=O)c1cc(F)c(O)c(O)c1Cl)C2` (stereo partly drawn) [Example 489, (3R)-3-(2-(4-(1-((4-chloro-2-fluoro-3-hydroxyphenyl)carbamoyl)piperidin-4-yl)-2,3-dioxopiperazine-1-carboxamido)-2-(2-chloro-5-fluoro-3,4-dihydroxyphenyl)acetamido)-7-fluoro-2-hydroxy-3,4-dihydro-2H-benzo[e][1,2]oxaborinine-8-carboxylic acid]: the IC50 in test [1] was less than 10 µM. The MIC in [2] (setting [11]) was less than 1 µg/mL; in [3], less than 1 µg/mL; in test [4] it was less than 1 µg/mL; in test [5], less than 1 µg/mL; in [6] (setting [12]), less than 1 µg/mL; in [7] (setting [13]), 2 to 4 µg/mL (≈ 2.34 to 4.69 µM). For the same compound, the MIC is less than 1 µg/mL in test [8] (setting [14]), 2 to 4 µg/mL (≈ 2.34 to 4.69 µM) in test [9] and 32 to 64 µg/mL (≈ 37.5 to 75 µM) in test [10].
For the compound `O=C(O)c1c(F)ccc2c1OB(O)[C@@H](NC(=O)[C@H](NC(=O)N1CCN(C3CCN(C(=O)Nc4cc(O)cc(F)c4)CC3)C1=O)c1cc(F)c(O)c(O)c1Cl)C2` (single isomer, unassigned) [Example 450], the IC50 in test [1] is less than 10 µM. Moreover, the MIC in test [2] (setting [15]), in test [3], in test [4], in test [5], in test [6] (setting [16]) and in test [7] (setting [17]) was less than 1 µg/mL in each case. Besides, the results for the MIC in test [8] (setting [18]), in test [9] and in [10] were less than 1 µg/mL, less than 1 µg/mL and 8 to 16 µg/mL (≈ 10.1 to 20.2 µM), respectively.
On to `O=C(NCCS(=O)(=O)N1CCN(C(=O)N[C@@H](C(=O)N[C@H]2Cc3ccc(F)c(C(=O)O)c3OB2O)c2ccc(P(=O)(O)O)cc2)C1=O)c1ccc(O)c(O)c1Cl` (single isomer, unassigned) [Example 168], for which the IC50 in test [1] is less than 10 µM. Moreover, the MIC is less than 1 µg/mL in test [2] (setting [15]); 2 to 4 µg/mL (≈ 2.42 to 4.83 µM) in test [3]; 8 to 16 µg/mL (≈ 9.66 to 19.3 µM) in test [4]; 32 to 64 µg/mL (≈ 38.7 to 77.3 µM) in [5]; 2 to 4 µg/mL (≈ 2.42 to 4.83 µM) in [6] (setting [16]); 32 to 64 µg/mL (≈ 38.7 to 77.3 µM) in test [7] (setting [17]). For the same compound, the values for the MIC in [8] (setting [18]), in test [9] and in test [10] were 2 to 4 µg/mL (≈ 2.42 to 4.83 µM), less than 1 µg/mL and less than 1 µg/mL, respectively.

For the origin of these results see US20240270762A1, “PENICILLIN-BINDING PROTEIN INHIBITORS” (priority 2021, published 2024).
